According to PubChem BioAssay AID330 (DTP/NCI, 2004):
“And” between values parts separate entries of the source, which are not always exact repeats. Identical values can stand only once. Toxic doses and inconclusive results are not listed. The calls were made as follows: active = survival T/C of 150% or more; inactive = T/C below 125% in these data. Peptide text beside a SMILES is read from it.

Test system: P388 leukemia ip, CD2F1 mice, survival T/C
Test: NCI In Vivo Anticancer Drug Screen. Data for tumor model P388 Leukemia (intraperitoneal) in CD2F1 (CDF1) mice
Settings: endpoint: median survival time, higher = longer survival
How it was run: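 Mice carrying the transplanted tumor received test compound or vehicle. Survival was recorded in each group, and the value is the treated-group measurement divided by that of the vehicle-treated control group.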

[1] = dose: 12.5 mg/kg/injection, schedule: Q01DX009 (ip), vehicle: other
[2] = dose: 25.0 mg/kg/injection, schedule: Q01DX009 (ip), vehicle: other
[3] = dose: 50.0 mg/kg/injection, schedule: Q01DX009 (ip), vehicle: other
[4] = dose: 100.0 mg/kg/injection, schedule: Q01DX009 (ip), vehicle: other
[5] = dose: 200.0 mg/kg/injection, schedule: Q01DX009 (ip), vehicle: other
[6] = dose: 100.0 mg/kg/injection, schedule: Q04DX003 (ip), vehicle: saline
[7] = dose: 25.0 mg/kg/injection, schedule: Q04DX003 (ip), vehicle: saline
[8] = dose: 12.5 mg/kg/injection, schedule: Q01DX009 (ip), vehicle: saline
[9] = dose: 25.0 mg/kg/injection, schedule: Q01DX009 (ip), vehicle: saline
[10] = dose: 60.0 mg/kg/injection, schedule: Q01DX005 (ip), vehicle: saline with Tween-80
[11] = dose: 120.0 mg/kg/injection, schedule: Q01DX005 (ip), vehicle: saline with Tween-80
[12] = dose: 240.0 mg/kg/injection, schedule: Q01DX005 (ip), vehicle: saline with Tween-80
[13] = dose: 50.0 mg/kg/injection, schedule: Q01DX005 (ip), vehicle: Klucel (hydroxypropylcellulose) (HPC)
[14] = dose: 100.0 mg/kg/injection, schedule: Q01DX005 (ip), vehicle: Klucel (hydroxypropylcellulose) (HPC)
[15] = dose: 200.0 mg/kg/injection, schedule: Q01DX005 (ip), vehicle: Klucel (hydroxypropylcellulose) (HPC)

Measured: T/C

CC(C)(C)N1CCC1CN (centres undefined)
inactive: dose: 25.0 mg/kg/injection, schedule: Q01DX005 (ip), vehicle: saline 90 % of control | dose: 50.0 mg/kg/injection, schedule: Q01DX005 (ip), vehicle: saline 100 % of control | dose: 100.0 mg/kg/injection, schedule: Q01DX005 (ip), vehicle: saline 104 % of control | dose: 200.0 mg/kg/injection, schedule: Q01DX005 (ip), vehicle: saline 100 % of control

COc1ccc(C(=O)OC2(C)CC(C)(C)N=N2)cc1 (centres undefined)
inactive: [1] 105 % of control | [2] 108 % of control | [3] 108 % of control | [4] 108 % of control | [5] 108 % of control

O=C(O)c1ccccc1Oc1ccccc1C(=O)O
inactive: [6] 100 % of control | dose: 200.0 mg/kg/injection, schedule: Q04DX003 (ip), vehicle: saline 100 % of control | dose: 400.0 mg/kg/injection, schedule: Q04DX003 (ip), vehicle: saline 100 % of control

NCCN1CCc2ccccc2C1
inactive: dose: 6.25 mg/kg/injection, schedule: Q04DX003 (ip), vehicle: saline 95 % of control | dose: 12.5 mg/kg/injection, schedule: Q04DX003 (ip), vehicle: saline 100 % of control | [7] 100 % of control

CN1CCC(O)(c2ncc(Br)c3ccccc23)CC1
inactive: dose: 60.0 mg/kg/injection, schedule: Q01DX005 (ip), vehicle: saline + alcohol 97 % of control | dose: 120.0 mg/kg/injection, schedule: Q01DX005 (ip), vehicle: saline + alcohol 93 % of control

c1ccc(N=C2N=c3ccccc3=C2c2c(Nc3ccccc3)[nH]c3ccccc23)cc1
inactive: dose: 50.0 mg/kg/injection, schedule: Q01DX005 (ip), vehicle: saline with Tween-80 89 % of control | dose: 100.0 mg/kg/injection, schedule: Q01DX005 (ip), vehicle: saline with Tween-80 90 % of control | dose: 200.0 mg/kg/injection, schedule: Q01DX005 (ip), vehicle: saline with Tween-80 92 % of control

O=S(=O)(c1ccccc1)C(SC(=S)Sc1ccccc1)Sc1ccccc1 (centres undefined)
inactive: [8] 104 % of control | [9] 107 % of control | dose: 50.0 mg/kg/injection, schedule: Q01DX009 (ip), vehicle: saline with Tween-80 114 % of control | dose: 50.0 mg/kg/injection, schedule: Q01DX009 (ip), vehicle: saline 96 % of control

COC(=O)CC1(C(=O)OC)c2ccc3c(C(=O)C(F)(F)F)cccc3c2N2CCCC21 (centres undefined)
inactive: dose: 100.0 mg/kg/injection, schedule: Q04DX002 (ip), vehicle: saline 101 % of control | dose: 200.0 mg/kg/injection, schedule: Q04DX002 (ip), vehicle: saline 102 % of control | dose: 400.0 mg/kg/injection, schedule: Q04DX002 (ip), vehicle: saline 102 % of control

Cc1cc(C(=O)NCCc2ccc(S(=O)(=O)NC(=O)NCC3CC4CCC3C4)cc2)no1 (centres undefined)
inactive: dose: 50.0 mg/kg/injection, schedule: Q01DX001 (ip), vehicle: Klucel (hydroxypropylcellulose) (HPC) 106 % of control | dose: 100.0 mg/kg/injection, schedule: Q01DX001 (ip), vehicle: Klucel (hydroxypropylcellulose) (HPC) 97 % of control | dose: 200.0 mg/kg/injection, schedule: Q01DX001 (ip), vehicle: Klucel (hydroxypropylcellulose) (HPC) 94 % of control

CCCCC(C)(CN(C)C)C(=O)/C=C/c1ccc(Cl)c(Cl)c1 (centres undefined)
inactive: dose: 3.13 mg/kg/injection, schedule: Q01DX009 (ip), vehicle: saline 111 % of control and 97 % of control | dose: 6.25 mg/kg/injection, schedule: Q01DX009 (ip), vehicle: saline 102 % of control and 108 % of control | [8] 109 % of control | [9] 106 % of control and 109 % of control

CCOCCOCCOC(C)Oc1ccc(Cl)cc1C (centres undefined)
inactive: [10] 90 % of control | [11] 92 % of control | [12] 98 % of control

COC1=CC(=O)c2c(O)c3c(c(O)c2C1=O)OC1(Oc2c(cc4cc(C)oc(=O)c4c2O)CC1O)C3O (centres undefined)
inactive: dose: 3.0 mg/kg/injection, schedule: Q01DX009 (ip), vehicle: Klucel (hydroxypropylcellulose) (HPC) 100 % of control | dose: 6.0 mg/kg/injection, schedule: Q01DX009 (ip), vehicle: Klucel (hydroxypropylcellulose) (HPC) 117 % of control | dose: 12.0 mg/kg/injection, schedule: Q01DX009 (ip), vehicle: Klucel (hydroxypropylcellulose) (HPC) 99 % of control | dose: 24.0 mg/kg/injection, schedule: Q01DX009 (ip), vehicle: Klucel (hydroxypropylcellulose) (HPC) 99 % of control

CC1CCC2(OC1)OC1C(O)C3C4CCC5CC(OC6OC(CO)C(OC7OC(CO)C(O)C(OC8OCC(O)C(O)C8O)C7OC7OC(CO)C(O)C(OC8OC(CO)C(O)C(O)C8O)C7O)C(O)C6O)C(O)CC5(C)C4CCC3(C)C1C2C (centres undefined)
inactive: dose: 0.62 mg/kg/injection, schedule: Q01DX009 (ip), vehicle: saline 101 % of control | dose: 1.25 mg/kg/injection, schedule: Q01DX009 (ip), vehicle: saline 98 % of control | dose: 2.5 mg/kg/injection, schedule: Q01DX009 (ip), vehicle: saline 93 % of control | dose: 5.0 mg/kg/injection, schedule: Q01DX009 (ip), vehicle: saline 87 % of control | dose: 40.0 mg/kg/injection, schedule: Q01DX009 (ip), vehicle: saline 86 % of control

NC(Cc1ccccc1)C(=O)NC(CC(=O)O)C(=O)O (stereo not drawn) (H-Phe-Asp-OH; configuration not given here)
inactive: [13] 99 % of control | [14] 99 % of control | [15] 109 % of control

Cc1ccc(S(=O)(=O)N/N=C/C(N)=O)cc1
inactive: [1] 101 % of control | [2] 101 % of control | [3] 96 % of control | [4] 104 % of control | [5] 118 % of control | dose: 400.0 mg/kg/injection, schedule: Q01DX009 (ip), vehicle: other 101 % of control

c1ccc2nc3c(nc2c1)CCCC3
inactive: [13] 96 % of control | [14] 109 % of control | [15] 100 % of control

CCCCOC(=O)C(c1ccccc1)C1(C)Sc2ccccc2NC1=O (centres undefined)
inactive: dose: 12.5 mg/kg/injection, schedule: Q01DX001 (ip), vehicle: saline with Tween-80 95 % of control | dose: 25.0 mg/kg/injection, schedule: Q01DX001 (ip), vehicle: saline with Tween-80 96 % of control | dose: 50.0 mg/kg/injection, schedule: Q01DX001 (ip), vehicle: saline with Tween-80 98 % of control

Nc1nc(N)c2c(n1)NCN(OCCOc1ccc(Cl)cc1Cl)C2
inactive: [10] 105 % of control | [11] 90 % of control

Cc1c(Cl)cccc1NC(=O)/C=C/C(=O)O
inactive: dose: 100.0 mg/kg/injection, schedule: Q04DX003 (ip), vehicle: saline with Tween-80 90 % of control | dose: 200.0 mg/kg/injection, schedule: Q04DX003 (ip), vehicle: saline with Tween-80 95 % of control | dose: 400.0 mg/kg/injection, schedule: Q04DX003 (ip), vehicle: saline with Tween-80 90 % of control

N=C1N=Nc2nc(C(C(=O)c3cccs3)c3nc4n(c3O)C(=N)N=N4)c(O)n21 (centres undefined)
inactive: [10] 97 % of control | [11] 100 % of control | [12] 106 % of control

O=[N+]([O-])c1ccc(-c2nnn(Cc3ccco3)c2N2CCCCC2)cc1
inactive: [13] 105 % of control | [14] 105 % of control | [15] 107 % of control

CCCCCC(Cn1ccnc1)c1c(Cl)cccc1Cl (centres undefined)
inactive: [7] 103 % of control | dose: 50.0 mg/kg/injection, schedule: Q04DX003 (ip), vehicle: saline 100 % of control | [6] 91 % of control

O=Nc1c2n[nH]c1CCCCCCCCC2
inactive: [13] 101 % of control | [14] 101 % of control | [15] 98 % of control

C=C(C#N)COc1ccc(Cl)cc1C
inactive: dose: 12.5 mg/kg/injection, schedule: Q01DX009 (ip), vehicle: Klucel (hydroxypropylcellulose) (HPC) 101 % of control | dose: 25.0 mg/kg/injection, schedule: Q01DX009 (ip), vehicle: Klucel (hydroxypropylcellulose) (HPC) 98 % of control | dose: 50.0 mg/kg/injection, schedule: Q01DX009 (ip), vehicle: Klucel (hydroxypropylcellulose) (HPC) 104 % of control and 95 % of control

CC(C)OC(=O)CC1NS(=O)(=O)c2ccccc21 (centres undefined)
inactive: dose: 50.0 mg/kg/injection, schedule: Q01DX005 (ip), vehicle: suspension in saline 103 % of control | dose: 100.0 mg/kg/injection, schedule: Q01DX005 (ip), vehicle: suspension in saline 103 % of control | dose: 200.0 mg/kg/injection, schedule: Q01DX005 (ip), vehicle: suspension in saline 100 % of control
